Measurements: BindingDB's records for doi:10.1021/acsmedchemlett.6b00315 (Ghent University, 2017)

assay: Inhibition of methicillin-resistant Staphylococcus aureus Mu50 TRAP assessed as potentiation of vancomycin-induced antibiofilm activity cotreated with vancomycin for 24 hrs

Q: For `Cn1cncc1C(=O)NC[C@H]1OC[C@@](O)(CNC(=O)c2ccccc2)[C@@H]1O`, which EC50 is on record?
A: Its EC50 is 58.2 µM.

Q: With `O=C(NC[C@H]1OC[C@@](O)(CNC(=O)C2CCCCC2)[C@@H]1O)c1ccccc1Cl` as the compound, how does the EC50 read?
A: The EC50 was 34 µM.

Q: For `O=C(NC[C@H]1OC[C@@](O)(CN2Cc3ccccc3C2=O)[C@@H]1O)c1ccccc1Cl`, which EC50 is on record?
A: Its EC50 is 20.9 µM.

Q: With `O=C(NC[C@H]1OC[C@@](O)(CN2C(=O)c3ccccc3C2=O)[C@@H]1O)c1ccc(-c2ccccc2)cc1` as the compound, how does the EC50 read?
A: Its EC50 is 12.1 µM.

Q: For `Cc1ccc(C(=O)NC[C@]2(O)CO[C@H](CNC(=O)c3ccccc3Cl)[C@H]2O)cc1`, which EC50 is on record?
A: Its EC50 is 41.9 µM.

Q: For `O=C(NC[C@]1(O)CO[C@H](CNC(=O)c2ccccc2Cl)[C@H]1O)c1ccoc1`, which EC50 is on record?
A: Its EC50 is 76.7 µM.

Q: For `CC(=O)NC[C@]1(O)CO[C@H](CNC(=O)c2ccccc2Cl)[C@H]1O`, which EC50 is on record?
A: Its EC50 is 3.55 µM.

Q: Which EC50 does the source give for `O=C(NC[C@H]1OC[C@@](O)(CNCc2ccccc2)[C@@H]1O)c1ccccc1Cl` here?
A: The EC50 was 8.42 µM.

Q: With `[N-]=[N+]=NC[C@]1(O)CO[C@H](CNC(=O)c2ccccc2Cl)[C@H]1O` as the compound, how does the EC50 read?
A: Its EC50 is 2.34 µM.

Q: For `Cn1nccc1C(=O)NC[C@H]1OC[C@@](O)(CNC(=O)c2ccccc2)[C@@H]1O`, which EC50 is on record?
A: Its EC50 is 23.5 µM.

Q: For `O=C(NC[C@H]1OC[C@@](O)(CN2C(=O)c3ccccc3C2=O)[C@@H]1O)c1ccccc1Cl`, which EC50 is on record?
A: The EC50 was 39 µM.

Q: For `O=C(OC[C@H]1OC(O)[C@@](O)(COC(=O)c2cc(O)c(O)c(O)c2)[C@@H]1O)c1cc(O)c(O)c(O)c1` (some centres undefined) [Hamamelitannin], which EC50 is on record?
A: The EC50 was 165 µM.

assay: as above; remark: another data set of the same source

Q: Which EC50 does the source give for `O=C(NC[C@]1(O)CO[C@H](CNC(=O)c2ccccc2Cl)[C@H]1O)c1ccccc1F` here?
A: Its EC50 is 62.2 µM.

Q: With `O=C(NC[C@H]1OC[C@H](O)[C@@H]1O)c1ccccc1Cl` as the compound, how does the EC50 read?
A: The EC50 was 4.99 µM.

Q: For `O=C(NC[C@]1(O)CO[C@H](CNC(=O)c2ccncc2Cl)[C@H]1O)c1ccccc1`, which EC50 is on record?
A: The EC50 was 232 µM.

Q: With `O=C(NC[C@H]1OC[C@@](O)(CNC(=O)c2ccc(-c3ccccc3)cc2)[C@@H]1O)c1ccnnc1` as the compound, how does the EC50 read?
A: Its EC50 is 45.4 µM.

Q: Which EC50 does the source give for `O=C(NC[C@]1(O)CO[C@H](CNC(=O)c2cccnc2Cl)[C@H]1O)c1ccccc1` here?
A: Its EC50 is over 250 µM.

Q: For `O=C(NC[C@H]1OC[C@@](O)(CNC(=O)c2ccccc2Cl)[C@@H]1O)c1ccccc1`, which EC50 is on record?
A: Its EC50 is 15 µM.

Q: Which EC50 does the source give for `O=C(NC[C@]1(O)CO[C@H](CNC(=O)c2ccccc2Cl)[C@H]1O)c1ccccc1` here?
A: Its EC50 is 7.98 µM.

Q: With `O=C(NC[C@]1(O)CO[C@H](CNC(=O)c2cnccc2Cl)[C@H]1O)c1ccccc1` as the compound, how does the EC50 read?
A: Its EC50 is over 250 µM.

Q: With `O=C(NC[C@]1(O)CO[C@H](CN2C(=O)c3ccccc3C2=O)[C@H]1O)c1ccccc1Cl` as the compound, how does the EC50 read?
A: Its EC50 is 1.27 µM.

Q: Which EC50 does the source give for `O=C(NC[C@]1(O)CO[C@H](CN2C(=O)c3ccccc3C2=O)[C@H]1O)c1ccnnc1` here?
A: The EC50 was 11.4 µM.

assay: Inhibition of methicillin-resistant Staphylococcus aureus Mu50 TRAP assessed as potentiation of vancomycin-induced antibiofilm activity treated for 4 hrs prior to vancomycin addition measured after 20 hrs

Q: Which EC50 does the source give for `O=C(NC[C@]1(O)CO[C@H](CNC(=O)c2ccccc2Cl)[C@H]1O)c1ccccc1F` here?
A: The EC50 was 48.6 µM.

Q: Which EC50 does the source give for `O=C(NC[C@H]1OC[C@H](O)[C@@H]1O)c1ccccc1Cl` here?
A: Its EC50 is 11.4 µM.

Q: Which EC50 does the source give for `O=C(NC[C@]1(O)CO[C@H](CNC(=O)c2ccncc2Cl)[C@H]1O)c1ccccc1` here?
A: Its EC50 is over 250 µM.

Q: With `Cn1cncc1C(=O)NC[C@H]1OC[C@@](O)(CNC(=O)c2ccccc2)[C@@H]1O` as the compound, how does the EC50 read?
A: The EC50 was 46.7 µM.

Q: With `O=C(NC[C@H]1OC[C@@](O)(CNC(=O)c2ccc(-c3ccccc3)cc2)[C@@H]1O)c1ccnnc1` as the compound, how does the EC50 read?
A: Its EC50 is 8.54 µM.

Q: For `O=C(NC[C@H]1OC[C@@](O)(CNC(=O)C2CCCCC2)[C@@H]1O)c1ccccc1Cl`, which EC50 is on record?
A: The EC50 was 9.56 µM.

Q: Which EC50 does the source give for `O=C(NC[C@H]1OC[C@@](O)(CN2Cc3ccccc3C2=O)[C@@H]1O)c1ccccc1Cl` here?
A: The EC50 was 13.7 µM.

Q: For `O=C(NC[C@]1(O)CO[C@H](CNC(=O)c2cccnc2Cl)[C@H]1O)c1ccccc1`, which EC50 is on record?
A: Its EC50 is over 250 µM.

Q: Which EC50 does the source give for `O=C(NC[C@H]1OC[C@@](O)(CNC(=O)c2ccccc2Cl)[C@@H]1O)c1ccccc1` here?
A: Its EC50 is 5.58 µM.

Q: For `O=C(NC[C@H]1OC[C@@](O)(CN2C(=O)c3ccccc3C2=O)[C@@H]1O)c1ccc(-c2ccccc2)cc1`, which EC50 is on record?
A: The EC50 was 24.7 µM.

Q: Which EC50 does the source give for `O=C(NC[C@]1(O)CO[C@H](CNC(=O)c2ccccc2Cl)[C@H]1O)c1ccccc1` here?
A: The EC50 was 0.39 µM.

Q: With `Cc1ccc(C(=O)NC[C@]2(O)CO[C@H](CNC(=O)c3ccccc3Cl)[C@H]2O)cc1` as the compound, how does the EC50 read?
A: The EC50 was 79.7 µM.

Q: With `O=C(NC[C@]1(O)CO[C@H](CNC(=O)c2ccccc2Cl)[C@H]1O)c1ccoc1` as the compound, how does the EC50 read?
A: Its EC50 is 68.5 µM.

Q: Which EC50 does the source give for `CC(=O)NC[C@]1(O)CO[C@H](CNC(=O)c2ccccc2Cl)[C@H]1O` here?
A: The EC50 was 15.4 µM.

Q: For `O=C(NC[C@H]1OC[C@@](O)(CNCc2ccccc2)[C@@H]1O)c1ccccc1Cl`, which EC50 is on record?
A: Its EC50 is 6.32 µM.

Q: With `[N-]=[N+]=NC[C@]1(O)CO[C@H](CNC(=O)c2ccccc2Cl)[C@H]1O` as the compound, how does the EC50 read?
A: The EC50 was 15.1 µM.

Q: For `O=C(NC[C@]1(O)CO[C@H](CNC(=O)c2cnccc2Cl)[C@H]1O)c1ccccc1`, which EC50 is on record?
A: The EC50 was 200 µM.

Q: Which EC50 does the source give for `Cn1nccc1C(=O)NC[C@H]1OC[C@@](O)(CNC(=O)c2ccccc2)[C@@H]1O` here?
A: The EC50 was 29.3 µM.

Q: For `O=C(NC[C@]1(O)CO[C@H](CN2C(=O)c3ccccc3C2=O)[C@H]1O)c1ccccc1Cl`, which EC50 is on record?
A: Its EC50 is 0.26 µM.

Q: Which EC50 does the source give for `O=C(NC[C@]1(O)CO[C@H](CN2C(=O)c3ccccc3C2=O)[C@H]1O)c1ccnnc1` here?
A: Its EC50 is 5.85 µM.

Q: For `O=C(NC[C@H]1OC[C@@](O)(CN2C(=O)c3ccccc3C2=O)[C@@H]1O)c1ccccc1Cl`, which EC50 is on record?
A: Its EC50 is 2.63 µM.

Q: For `O=C(OC[C@H]1OC(O)[C@@](O)(COC(=O)c2cc(O)c(O)c(O)c2)[C@@H]1O)c1cc(O)c(O)c(O)c1` (some centres undefined) [Hamamelitannin], which EC50 is on record?
A: Its EC50 is 146 µM.
